The record followed here is US20260374756A1, “HETEROCYCLIC COMPOUNDS AS INHIBITORS OF MONOACYLGLYCEROL LIPASE (MAGL)” (Hoffmann-La Roche Inc., priority 2022, published 2026).

Structures are written as SMILES.

One may read the IC50 as the concentration at which inhibition is half-maximal.

For the experiment, the target named is T1, hMAGL (Homo sapiens, UniProt Q99685).
T1 sequence (Q99685 1-303): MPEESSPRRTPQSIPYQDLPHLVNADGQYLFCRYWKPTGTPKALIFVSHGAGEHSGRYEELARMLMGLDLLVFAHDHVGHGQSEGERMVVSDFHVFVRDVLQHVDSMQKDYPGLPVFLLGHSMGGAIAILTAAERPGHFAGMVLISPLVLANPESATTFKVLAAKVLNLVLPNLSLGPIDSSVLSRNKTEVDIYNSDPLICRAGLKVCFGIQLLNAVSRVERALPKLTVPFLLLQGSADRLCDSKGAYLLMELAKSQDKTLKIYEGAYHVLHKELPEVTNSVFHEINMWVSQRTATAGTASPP
The experiment in a line: 2-AG assay: MAGL inhibition, hydrolysis of 2-arachidonoylglycerol to arachidonic acid followed by mass spectrometry. In kind it is biochemical. The essentials:
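MAGL preincubated with compound 15 min at RT in 50 mM Tris, 1 mM EDTA, 0.01% Tween-20, 2.5% DMSO; reaction started with 8 μM 2-AG (final), […], 30 min at RT. Quenched with acetonitrile containing d8-arachidonic acid; arachidonic acid quantified by RapidFire SPE-triple quad MS as arachidonic acid/d8 ratio.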
Regarding `Cc1nc(C(F)(F)F)c(CN2CC3(C2)CN(C(=O)N2CC4(CC(n5cnc(C6(O)CC6)n5)C4)C2)C3)s1` [Example 87, [6-[3-(1-hydroxycyclopropyl)-1,2,4-triazol-1-yl]-2-azaspiro[3.3]heptan-2-yl]-[6-[[2-methyl-4-(trifluoromethyl)thiazol-5-yl]methyl]-2,6-diazaspiro[3.3]heptan-2-yl]methanone], the IC50 was determined as 351 nM.
For `O=C(N1CC2(CC(n3cnc(C(F)(F)F)n3)C2)C1)N1CC2(CN(Cc3conc3C(F)(F)F)C2)C1` [Example 218, [6-[[3-(trifluoromethyl)isoxazol-4-yl]methyl]-2,6-diazaspiro[3.3]heptan-2-yl]-[6-[3-(trifluoromethyl)-1,2,4-triazol-1-yl]-2-azaspiro[3.3]heptan-2-yl]methanone], the IC50 was 31.9 nM.
The value for `O=C(N1CC2(CC(n3cnc(C4CC4)n3)C2)C1)N1CC2(CN(Cc3ncc(C(F)F)s3)C2)C1` [Example 188, [6-(3-cyclopropyl-1,2,4-triazol-1-yl)-2-azaspiro[3.3]heptan-2-yl]-[6-[[5-(difluoromethyl)thiazol-2-yl]methyl]-2,6-diazaspiro[3.3]heptan-2-yl]methanone] was 3.94 nM.
The value for `O=C(N1CC2(CC(n3cnc(C4(O)CC4)n3)C2)C1)N1CC2(CN(Cc3nnc(C(F)(F)F)s3)C2)C1` [Example 84, [6-[3-(1-hydroxycyclopropyl)-1,2,4-triazol-1-yl]-2-azaspiro[3.3]heptan-2-yl]-[6-[[5-(trifluoromethyl)-1,3,4-thiadiazol-2-yl]methyl]-2,6-diazaspiro[3.3]heptan-2-yl]methanone] was 2090 nM.
